{"source": "patent US9173395B2", "about": "“Use of substituted isoquinolinones, isoquinolindiones, isoquinolintriones and dihydroisoquinolinones or in each case salts thereof as active agents against abiotic stress in plants” (BAYER INTELLECTUAL PROPERTY GMBH, priority 2011, dated 2015)", "key": {"BRSNS": {"tested_on": "BRSNS", "assay": "Drought stress test on crop plants, visual damage rating, efficacy EF", "format": "in vivo, Brassica napus", "details": "dosage 25 g/ha, mean of three results", "description": "(§1) Seeds of monocotyledonous and dicotyledonous crop plants were laid out in sandy loam in wood-fiber pots, covered with soil and cultivated in a greenhouse under good growth conditions. The test plants were treated at the early leaf stage (BBCH10-BBCH13). To ensure uniform water supply before commencement of stress, the potted plants were supplied with the maximum amount of water immediately beforehand by dam irrigation and, after application, transferred into plastic inserts in order to prevent subsequent, excessively rapid drying. The compounds according to the invention, formulated in the form of wettable powders (WP), wettable granules (WG), suspension concentrates (SC) or emulsion concentrates (EC), were sprayed onto the green parts of the plants as an aqueous suspension at an equivalent water application rate of 600 I/ha with addition of 0.2% wetting agent (agrotin). Substance application is followed immediately by stress treatment of the plants (cold or drought stress). […]\n(§2) After the recovery phase had ended, the intensities of damage were rated visually in comparison to untreated, unstressed controls of the same age (in the case of drought stress) or the same growth stage (in the case of cold stress). The intensity of damage was first recorded as a percentage (100%=plants have died, 0%=like control plants). […]"}, "TRZAS": {"tested_on": "TRZAS", "assay": "Drought stress test on crop plants, visual damage rating, efficacy EF", "format": "in vivo, Triticum aestivum", "details": "dosage 25 g/ha, mean of three results", "description": "as §1, §2"}}, "data": [{"smiles": "O=c1[nH]ccc2ccc(-c3ccc(Cl)cc3F)cc12", "note": "[I.1-252, 7-(4-chloro-2-fluorophenyl)isoquinolin-1(2H)-one]", "values": [{"measurement": "EF (BRSNS)", "setting": "BRSNS", "result": ">5", "unit": "%"}, {"measurement": "EF (TRZAS)", "setting": "TRZAS", "result": ">5", "unit": "%"}]}]}
